Data taken from US6355785B1, “Guanosine-rich oligonucleotide integrase inhibitors” (Aronex Pharmaceuticals, Inc., priority 1993, dated 2002).
Read-outs that look alike come from different tables or passages of the source.

Test system: HIV-1 infected PBMCs

“5′-gtggtgggtgggtgggt-3′ [T30177] (GTGGTGGGTGGGTGGGT; phosphorothioate termini, further chemistry not given here)” was tested, and the “% CD4” value (IIIB, drug 0.1 μM, day 7) was 1%, the “% CD8” value (IIIB, drug 0.1 μM, day 7) was 98% and the “CD4/CD8 Ratio” value (IIIB, drug 0.1 μM, day 7) was 0.01. For the same substance, the “% CD4” value (IIIB, drug 1.0 μM) was 18%, the “% CD8” value (IIIB, drug 1.0 μM) was 85% and the “CD4/CD8 Ratio” value (IIIB, drug 1.0 μM) was 0.21. The “% CD4” value (IIIB, drug 5.0 μM) was 27%, the “% CD8” value (IIIB, drug 5.0 μM) was 83% and the “CD4/CD8 Ratio” value (IIIB, drug 5.0 μM) was 0.33. The “% CD4” value (IIIB, drug 10.0 μM) was 27%, the “% CD8” value (IIIB, drug 10.0 μM) was 83% and the “CD4/CD8 Ratio” value (IIIB, drug 10.0 μM) was 0.33. The “% CD4” value (MN, drug 0.1 μM) was 5%, the “% CD8” value (MN, drug 0.1 μM) was 95% and the “CD4/CD8 Ratio” value (MN, drug 0.1 μM) was 0.05. For the same substance, the “% CD4” value (MN, drug 1.0 μM) was 18%, the “% CD8” value (MN, drug 1.0 μM) was 86% and the “CD4/CD8 Ratio” value (MN, drug 1.0 μM) was 0.21. The “% CD4” value (MN, drug 5.0 μM) was 25%, the “% CD8” value (MN, drug 5.0 μM) was 81% and the “CD4/CD8 Ratio” value (MN, drug 5.0 μM) was 0.31. For the same substance, the “% CD4” value (MN, drug 10.0 μM) was 26%, the “% CD8” value (MN, drug 10.0 μM) was 80% and the “CD4/CD8 Ratio” value (MN, drug 10.0 μM) was 0.33. For the same substance, the “% CD4” value (N. Amer. #1, drug 0.1 μM) was 21%, the “% CD8” value (N. Amer. #1, drug 0.1 μM) was 84% and the “CD4/CD8 Ratio” value (N. Amer. #1, drug 0.1 μM) was 0.25. For the same substance, the “% CD4” value (N. Amer. #1, drug 1.0 μM) was 26%, the “% CD8” value (N. Amer. #1, drug 1.0 μM) was 80% and the “CD4/CD8 Ratio” value (N. Amer. #1, drug 1.0 μM) was 0.33. The “% CD4” value (N. Amer. #1, drug 5.0 μM) was 27%, the “% CD8” value (N. Amer. #1, drug 5.0 μM) was 81% and the “CD4/CD8 Ratio” value (N. Amer. #1, drug 5.0 μM) was 0.33. For the same substance, the “% CD4” value (N. Amer. #1, drug 10.0 μM) was 29%, the “% CD8” value (N. Amer. #1, drug 10.0 μM) was 81% and the “CD4/CD8 Ratio” value (N. Amer. #1, drug 10.0 μM) was 0.36. For the same substance, the “% CD4” value (N. Amer. #2, drug 0.1 μM) was 4%, the “% CD8” value (N. Amer. #2, drug 0.1 μM) was 98% and the “CD4/CD8 Ratio” value (N. Amer. #2, drug 0.1 μM) was 0.04. The “% CD4” value (N. Amer. #2, drug 1.0 μM) was 5%, the “% CD8” value (N. Amer. #2, drug 1.0 μM) was 95% and the “CD4/CD8 Ratio” value (N. Amer. #2, drug 1.0 μM) was 0.05. The “% CD4” value (N. Amer. #2, drug 5.0 μM) was 28%, the “% CD8” value (N. Amer. #2, drug 5.0 μM) was 82% and the “CD4/CD8 Ratio” value (N. Amer. #2, drug 5.0 μM) was 0.34. For the same substance, the “% CD4” value (N. Amer. #2, drug 10.0 μM) was 27%, the “% CD8” value (N. Amer. #2, drug 10.0 μM) was 84% and the “CD4/CD8 Ratio” value (N. Amer. #2, drug 10.0 μM) was 0.32. The “% CD4” value (RF, drug 0.1 μM) was 10%, the “% CD8” value (RF, drug 0.1 μM) was 92% and the “CD4/CD8 Ratio” value (RF, drug 0.1 μM) was 0.11. For the same substance, the “% CD4” value (RF, drug 1.0 μM) was 26%, the “% CD8” value (RF, drug 1.0 μM) was 82% and the “CD4/CD8 Ratio” value (RF, drug 1.0 μM) was 0.32. For the same substance, the “% CD4” value (RF, drug 5.0 μM) was 31%, the “% CD8” value (RF, drug 5.0 μM) was 83% and the “CD4/CD8 Ratio” value (RF, drug 5.0 μM) was 0.37. The “% CD4” value (RF, drug 10.0 μM) was 29%, the “% CD8” value (RF, drug 10.0 μM) was 85% and the “CD4/CD8 Ratio” value (RF, drug 10.0 μM) was 0.34. For the same substance, the “% CD4” value (SE Asia isolate, drug 0.1 μM) was 2%, the “% CD8” value (SE Asia isolate, drug 0.1 μM) was 99% and the “CD4/CD8 Ratio” value (SE Asia isolate, drug 0.1 μM) was 0.02.
